The assay deals with Methionine aminopeptidase 1 (Homo sapiens, UniProt P53582). Put plainly: MetAP Enzyme Activity Assay. The note with it: pH 7.4; 22 °C. How it is done: A coupled enzyme chromogenic assay was developed to measure methionine aminopeptidase activity by monitoring the production of free methionine with L-amino acid oxidase and horseradish peroxidase. Assays were performed in 96-well microtiter plates. The reactions were carried out at room temperature, and absorbance at 450 nm (A450) was measured every 20 s over a period of 20 min using an automatic plate reader (Molecular Devices, CA). The rate in mOD/min, calculated for each well, was converted to nM methionine releases per minute per nM MetAP in the reaction.
The IC50 is the concentration needed to halve the response being measured. Read a low IC50 as greater potency. In turn, `CC(C)CSC[C@@H](N)[C@H](O)C(=O)N[C@@H](C)c1cccc2ccccc12` gave an IC50 of 2.2 µM.

Take `CC(C)SCC[C@@H](N)[C@H](O)C(=O)N[C@@H](C)c1cccc2ccccc12`: the IC50 was determined as 12 µM.

The molecule `CC(C)CSC[C@@H](N)[C@H](O)C(=O)NNC(=O)c1cccc(Cl)c1` registered an IC50 of 8.1 µM. `CC(C)SCC[C@@H](N)[C@H](O)C(=O)NNC(=O)c1cccc(Cl)c1` [N'-[(2S,3R)-3-amino-2-hydroxy-5-(propan-2-ylsulfanyl)pentanoyl]-3-chlorobenzohydrazide] gave an IC50 of 57 µM. The value for `CCSCC[C@@H](N)[C@H](O)C(=O)NNC(=O)c1cccc(Cl)c1` [N'-[(2S,3R)-3-amino-5-(ethylsulfanyl)-2-hydroxypentanoyl]-3-chlorobenzohydrazide] was 20 µM. `CCSCC[C@@H](N)[C@H](O)C(=O)N[C@@H](C)c1cccc2ccccc12` [bestatin-type inhibitor, 4] had an IC50 of 0.37 µM.

As to `CCOC(=O)[C@H](C)NC(=O)[C@@H](O)[C@H](N)CCSC` [ethyl (2S)-2-[(2S,3R)-3-amino-2-hydroxy-5-(methylsulfanyl)pentanamido]propanoate], the IC50 was determined as 63 µM. `CCOC(=O)[C@H](C)NC(=O)[C@@H](O)[C@H](N)CCSCC` [ethyl (2S)-2-[(2S,3R)-3-amino-5-(ethylsulfanyl)-2-hydroxypentanamido]propanoate] yielded an IC50 of 69 µM. `CCOC(=O)[C@H](C)NC(=O)[C@@H](O)[C@H](N)CSCC(C)C` [ethyl (2S)-2-[(2S,3S)-3-amino-2-hydroxy-4-[(2-methylpropyl)sulfanyl]butanamido]propanoate] had an IC50 of 66 µM.

The record behind these values is BindingDB's records for PubMed 14633714 (Abbott Laboratories, 2003).
